Publication PMC4844176 (Xenobiotica; the fate of foreign compounds in biological …, 2015)
Values after ≈ are worked out from the molar mass of the structure shown. Values joined by “and” are separate entries in the source; they are usually repeats but may differ in a detail not shown here. Equal entries are not always repeated.

Assays:
UGT1A6 = target: T1, UGT1A6 (Homo sapiens, UniProt P19224); test: Screening for aprepitant glucuronidation, UGT1A6 Supersomes; type: in vitro ADME; settings: UGT1A6, 5 and 250 µM aprepitant
T1 sequence (P19224 27-532): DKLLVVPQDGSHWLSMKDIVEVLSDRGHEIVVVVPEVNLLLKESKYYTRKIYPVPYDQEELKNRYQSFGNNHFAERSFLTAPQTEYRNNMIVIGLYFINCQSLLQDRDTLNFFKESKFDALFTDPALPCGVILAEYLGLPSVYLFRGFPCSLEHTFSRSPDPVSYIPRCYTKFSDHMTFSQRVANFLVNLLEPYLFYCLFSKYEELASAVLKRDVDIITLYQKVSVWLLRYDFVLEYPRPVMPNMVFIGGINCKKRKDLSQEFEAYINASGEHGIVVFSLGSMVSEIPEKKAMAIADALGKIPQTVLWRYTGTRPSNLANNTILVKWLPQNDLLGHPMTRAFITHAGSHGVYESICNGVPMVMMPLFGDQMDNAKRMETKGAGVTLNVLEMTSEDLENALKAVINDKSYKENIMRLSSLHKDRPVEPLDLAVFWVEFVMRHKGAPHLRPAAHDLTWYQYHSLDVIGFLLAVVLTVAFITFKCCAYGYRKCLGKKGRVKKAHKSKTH

UGT1A10 = target: T2, UGT1A10 (Homo sapiens, UniProt Q9HAW8); test: Screening for aprepitant glucuronidation, UGT1A10 Supersomes; type: in vitro ADME; settings: UGT1A10, 5 and 250 µM aprepitant
T2 sequence (Q9HAW8 26-530): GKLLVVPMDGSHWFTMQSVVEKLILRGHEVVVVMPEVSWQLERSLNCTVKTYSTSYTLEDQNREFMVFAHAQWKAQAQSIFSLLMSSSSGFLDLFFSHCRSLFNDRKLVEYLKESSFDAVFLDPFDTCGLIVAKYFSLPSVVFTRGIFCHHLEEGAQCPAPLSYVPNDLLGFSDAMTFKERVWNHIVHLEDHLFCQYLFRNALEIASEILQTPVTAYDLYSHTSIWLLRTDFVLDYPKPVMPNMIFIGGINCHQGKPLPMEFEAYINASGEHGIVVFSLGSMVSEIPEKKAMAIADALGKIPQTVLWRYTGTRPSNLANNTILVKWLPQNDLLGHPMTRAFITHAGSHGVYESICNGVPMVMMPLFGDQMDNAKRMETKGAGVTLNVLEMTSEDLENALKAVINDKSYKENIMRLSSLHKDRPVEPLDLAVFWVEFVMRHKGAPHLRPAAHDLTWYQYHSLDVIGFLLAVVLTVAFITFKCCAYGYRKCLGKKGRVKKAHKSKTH

UGT2B17 = target: T3, UGT2B17 (Homo sapiens, UniProt O75795); test: Screening for aprepitant glucuronidation, UGT2B17 Supersomes; type: in vitro ADME; settings: UGT2B17, 5 and 250 µM aprepitant
T3 sequence (O75795 24-530): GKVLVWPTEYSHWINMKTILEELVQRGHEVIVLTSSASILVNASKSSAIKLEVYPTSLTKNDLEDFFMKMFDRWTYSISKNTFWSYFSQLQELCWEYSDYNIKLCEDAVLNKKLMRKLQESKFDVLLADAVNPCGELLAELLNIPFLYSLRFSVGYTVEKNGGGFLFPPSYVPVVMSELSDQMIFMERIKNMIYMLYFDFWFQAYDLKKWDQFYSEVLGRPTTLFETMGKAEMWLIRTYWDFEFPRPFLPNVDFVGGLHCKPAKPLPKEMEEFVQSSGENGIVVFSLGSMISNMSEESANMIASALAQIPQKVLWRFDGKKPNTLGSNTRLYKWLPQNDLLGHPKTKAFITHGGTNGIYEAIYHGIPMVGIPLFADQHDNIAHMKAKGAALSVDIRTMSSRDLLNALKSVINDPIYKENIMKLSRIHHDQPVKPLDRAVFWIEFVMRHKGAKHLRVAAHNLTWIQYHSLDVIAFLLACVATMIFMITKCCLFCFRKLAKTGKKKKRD

[1] = test system: human liver microsomes (HLM); type: in vitro ADME; settings: microsomes from 44 livers, 30 µM aprepitant
[2] = Aqueous solubility of aprepitant; type: physicochemical; settings: aqueous medium
UGT1A8 = target: T4, UGT1A8 (Homo sapiens, UniProt Q9HAW9)
T4 sequence (Q9HAW9 26-530): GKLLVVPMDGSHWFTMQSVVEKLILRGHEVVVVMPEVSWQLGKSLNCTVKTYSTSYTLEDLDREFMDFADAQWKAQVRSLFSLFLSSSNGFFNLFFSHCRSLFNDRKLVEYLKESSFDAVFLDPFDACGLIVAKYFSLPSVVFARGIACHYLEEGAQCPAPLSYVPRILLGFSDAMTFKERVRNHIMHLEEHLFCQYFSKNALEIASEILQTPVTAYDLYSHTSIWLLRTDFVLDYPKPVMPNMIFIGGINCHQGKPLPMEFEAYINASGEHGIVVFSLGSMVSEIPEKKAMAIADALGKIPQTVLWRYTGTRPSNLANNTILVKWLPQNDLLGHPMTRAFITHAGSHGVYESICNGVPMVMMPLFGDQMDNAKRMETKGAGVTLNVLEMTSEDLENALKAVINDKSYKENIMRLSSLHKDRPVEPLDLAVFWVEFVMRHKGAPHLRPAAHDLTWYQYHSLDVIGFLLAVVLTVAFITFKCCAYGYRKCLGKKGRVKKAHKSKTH

[3] = ref Lasseter et al., 2007, Takahashi et al., 2011; cited from earlier work
UGT2B7 = target: T5, UGT2B7 (Homo sapiens, UniProt P16662); test: biochemical
T5 sequence (P16662 24-529): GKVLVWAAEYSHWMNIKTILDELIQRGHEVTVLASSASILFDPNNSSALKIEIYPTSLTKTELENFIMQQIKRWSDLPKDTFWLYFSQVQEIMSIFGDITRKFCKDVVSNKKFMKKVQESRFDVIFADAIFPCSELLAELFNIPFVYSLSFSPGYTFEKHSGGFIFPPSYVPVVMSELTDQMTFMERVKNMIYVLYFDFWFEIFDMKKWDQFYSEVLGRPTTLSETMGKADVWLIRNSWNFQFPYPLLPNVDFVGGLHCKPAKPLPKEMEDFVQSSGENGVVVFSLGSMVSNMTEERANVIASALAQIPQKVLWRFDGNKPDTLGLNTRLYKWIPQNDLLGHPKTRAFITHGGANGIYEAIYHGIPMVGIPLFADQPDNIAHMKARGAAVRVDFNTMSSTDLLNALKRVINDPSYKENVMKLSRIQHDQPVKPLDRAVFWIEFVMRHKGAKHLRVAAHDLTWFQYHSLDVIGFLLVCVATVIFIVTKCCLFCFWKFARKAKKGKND

## C[C@@H](O[C@H]1OCCN(Cc2n[nH]c(=O)[nH]2)[C@H]1c1ccc(F)cc1)c1cc(C(F)(F)F)cc(C(F)(F)F)c1 [aprepitant, Aprepitant]
UGT1A6
  AP-G formation: not detected
UGT1A10
  AP-G formation: not detected
UGT2B17
  AP-G formation: not detected
[1]
  variation of glucuronidation activity between livers: approximately 2 fold
[2]
  solubility: ~250 µM (≈ 134 µg/mL)
UGT1A8; UGT1A8, mean ± SE
  Vmax: 683 ± 69 fmol/min/mg protein
  n (Hill coefficient): 1.2 ± 0.1
UGT1A8; human, 60 min, 250 µM, pH 7.5
  velocity of AP-G formation: 391 ± 10.6 fmol/min/mg protein
UGT1A8; human, recombinant enzyme, pH 7.5
  CLint: 3.5 µl/min/µg protein
[3]
  systemic circulation concentration in patients: approximately 5 µM
UGT2B7
  Ki: ~10 µM and 7.4 µM and 16.3 µM and 6.7 µM
